Measurements from patent US9561168B2, “Oral care compositions” (Colgate-Palmolive Company, priority 2011, dated 2017).

Experiments:
[1] = antimicrobial agents currently in use in oral formulations; organism not stated; cited from earlier work
Actinomyces viscosus = experiment: Minimum inhibitory concentration (MIC) against Actinomyces viscosus; format: cell-based
Experimental: (§1) Mixed species bacteria are grown as follows: Actinomyces viscosus (ATCC #31346) is grown in trypticase soy broth supplemented with 0.6% yeast extract (TSB-YE) at 37° C., static culture. For mixed species assays, the source of bacteria is a continuous culture chemostat inoculated with A. viscosus, Lactobacillus casei (ATCC #334), Streptococcus oralis (ATCC #35037), Fusobacterium nucleatum (ATCC #10953), and Veilonella parvula (ATCC #17745). This mixed culture is maintained in a specialized complex medium in a continuous culture chemostat at 37° C.
Gallium nitrate is assessed in oral biofilm models. […] The advantage of gallium over other agents is that it appears to target the relatively starved bacteria found deeper in the biofilms that are usually less accessible to traditional antimicrobial agents.

[2] = tested on: single species Actinomyces viscosus biofilms; experiment: Inhibition of single species Actinomyces viscosus biofilm formation; format: cell-based; conditions: single species A. viscosus biofilm
Experimental: as §1

[3] = tested on: five species biofilm (A. viscosus, Lactobacillus casei, Streptococcus oralis, Fusobacterium nucleatum, Veilonella parvula); experiment: Mixed (five) species biofilm test on saliva-coated HAP disks; format: cell-based; conditions: 250 ppm of ε-polylysine
Experimental: Mixed species biofilms are preformed on saliva-coated HAP disks (scHAP). Following saliva coating, disks are inoculated with 1 ml of mixed species culture from the continuous culture chemostat described above diluted to an OD610 of ˜0.2 in 0.5×TSB. Plates are incubated for 48 h at 37° C. to allow biofilms to form.
Disks containing preformed biofilms are transferred to a fresh 24-well culture plate and 1 ml of sterile 0.5×TSB medium containing the indicted concentration of test compound is added to each disk. Plates are incubated for 1 h at 37° C. with gentle agitation. […] Plates are sonicated for 2 min to pellet any residual HAP and supernatants are removed to fresh plates so that absorbance could be read at 610 nm.
All samples are tested in triplicate and the average of the three wells determined.

[4] = tested on: other oral bacterial species tested; experiment: Antimicrobial activity against other oral bacterial species; format: cell-based; conditions: any other oral bacterial species tested (other than A. viscosus)

| Compound | MTC values [1] | minimum inhibitory concentration (MIC) (Actinomyces viscosus) | concentration able to inhibit formation of single species biofilms [2] | inhibition of multispecies biofilm formation [3] | antimicrobial activity against other oral bacterial species [4] |
| --- | --- | --- | --- | --- | --- |
| Oc1cc(Cl)ccc1Oc1ccc(Cl)cc1Cl [triclosan] | less than 10 ppm |  |  |  |  |
| ε-Polylysine |  | < 1 ppm | < 1 ppm | less than 20% | does not have antimicrobial activity |
| O=[N+]([O-])[O-].O=[N+]([O-])[O-].O=[N+]([O-])[O-].[Ga+3] [gallium nitrate] |  | approximately 60 ppm | 30 ppm |  |  |
